One data set has as its target T1, PI3K alpha (Homo sapiens, UniProt P42336).
T1 construct: p85(iSH2) fusion partner (see partner chain) (N); His tag (C); made in house; host or cells: baculovirus; Tn5 (Trichoplusia ni) or TiniPro insect cells
Kind of data set: PI3K alpha kinase assay (Kinase-Glo luminescence). The data set is classed as biochemical. Summed up: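 PI3Kα construct EMV B1075 (10 nM final) was preincubated with 10 μg/mL phosphatidylinositol in 10 mM Tris-HCl pH 7.5, 3 mM MgCl2, 50 mM NaCl, 0.05% CHAPS, 1 mM DTT. Reaction started with 1 μM ATP, 60 min at room temperature; remaining ATP measured by Kinase-Glo luminescence. IC50 from 4-parameter logistic fit of 8-point titrations.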

The target of a further data set is T2, PI3K gamma (Homo sapiens, UniProt P48736).
T2 construct: His tag (C); made in house; host or cells: baculovirus (pVL1393); Tn5 or TiniPro insect cells; construct from Roger Williams lab, MRC LMB
T2 sequence (P48736 144-1102 limits assumed): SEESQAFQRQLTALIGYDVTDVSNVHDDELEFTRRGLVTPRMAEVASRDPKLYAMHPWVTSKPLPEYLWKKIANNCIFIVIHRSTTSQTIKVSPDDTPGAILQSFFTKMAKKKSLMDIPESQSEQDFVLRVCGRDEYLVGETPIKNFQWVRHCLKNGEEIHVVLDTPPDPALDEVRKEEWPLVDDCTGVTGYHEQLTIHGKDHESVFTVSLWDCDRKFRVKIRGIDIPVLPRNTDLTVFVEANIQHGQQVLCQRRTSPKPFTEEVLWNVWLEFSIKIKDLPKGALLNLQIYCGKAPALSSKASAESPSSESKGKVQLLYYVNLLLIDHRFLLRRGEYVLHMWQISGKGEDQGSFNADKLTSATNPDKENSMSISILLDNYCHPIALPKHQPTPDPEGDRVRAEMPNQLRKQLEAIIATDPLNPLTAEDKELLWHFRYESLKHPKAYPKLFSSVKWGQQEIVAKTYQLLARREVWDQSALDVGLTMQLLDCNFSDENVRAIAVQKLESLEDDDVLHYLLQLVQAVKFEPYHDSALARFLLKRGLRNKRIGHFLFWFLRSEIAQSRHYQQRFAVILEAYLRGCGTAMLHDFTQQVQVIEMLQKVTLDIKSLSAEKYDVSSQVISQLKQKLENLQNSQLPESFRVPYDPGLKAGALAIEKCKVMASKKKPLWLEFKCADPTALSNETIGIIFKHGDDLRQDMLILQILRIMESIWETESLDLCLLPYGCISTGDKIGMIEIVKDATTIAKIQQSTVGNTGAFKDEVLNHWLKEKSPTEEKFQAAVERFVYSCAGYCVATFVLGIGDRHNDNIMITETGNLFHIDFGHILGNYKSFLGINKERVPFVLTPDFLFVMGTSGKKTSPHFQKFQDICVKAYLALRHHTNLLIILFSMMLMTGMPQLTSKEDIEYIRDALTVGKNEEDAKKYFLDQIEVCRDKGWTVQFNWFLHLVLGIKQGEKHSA
Briefly: PI3K gamma kinase assay (Kinase-Glo luminescence). Format: biochemical. In a few lines:
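Luminescent ATP-depletion (Kinase-Glo) assay with 150 nM PI3Kγ, 1 μM ATP and 10 μg/mL phosphatidylinositol in 10 mM Tris-HCl pH 7.5, 3 mM MgCl2, 50 mM NaCl, 0.05% CHAPS, 1 mM DTT; 120 min at room temperature. Eight-point dilutions; IC50 by four-parameter logistic fit.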

The next data set can be described thus: Solubility at pH 6.8. Format: physicochemical. Conditions: pH 6.8, aqueous buffer, thermodynamic from solid; read-out: solubility. In a few lines:
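Solubility was measured at pH 6.8 following the cited Zhou et al. (2007) procedure.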

Data set [1] is described as follows: Cellular CaCo2 permeability assay from apical to basal (A-B). The data set is classed as in vitro ADME. Conditions: human, Caco-2, read-out: Pe A-B (permeability). The text has this:
The permeability in 10^−6 cm/s of compounds of formula (I) have been confirmed for selected example using a cellular CaCo2 permeability assay from apical to basal (A-B): […]

≈ marks a conversion by molar mass, not a printed value.

These results are taken from patent US20140005163A1 (NOVARTIS AG, priority 2010, published 2014).

T1 sequence (P42336 with tags, fused parts or gaps limits assumed): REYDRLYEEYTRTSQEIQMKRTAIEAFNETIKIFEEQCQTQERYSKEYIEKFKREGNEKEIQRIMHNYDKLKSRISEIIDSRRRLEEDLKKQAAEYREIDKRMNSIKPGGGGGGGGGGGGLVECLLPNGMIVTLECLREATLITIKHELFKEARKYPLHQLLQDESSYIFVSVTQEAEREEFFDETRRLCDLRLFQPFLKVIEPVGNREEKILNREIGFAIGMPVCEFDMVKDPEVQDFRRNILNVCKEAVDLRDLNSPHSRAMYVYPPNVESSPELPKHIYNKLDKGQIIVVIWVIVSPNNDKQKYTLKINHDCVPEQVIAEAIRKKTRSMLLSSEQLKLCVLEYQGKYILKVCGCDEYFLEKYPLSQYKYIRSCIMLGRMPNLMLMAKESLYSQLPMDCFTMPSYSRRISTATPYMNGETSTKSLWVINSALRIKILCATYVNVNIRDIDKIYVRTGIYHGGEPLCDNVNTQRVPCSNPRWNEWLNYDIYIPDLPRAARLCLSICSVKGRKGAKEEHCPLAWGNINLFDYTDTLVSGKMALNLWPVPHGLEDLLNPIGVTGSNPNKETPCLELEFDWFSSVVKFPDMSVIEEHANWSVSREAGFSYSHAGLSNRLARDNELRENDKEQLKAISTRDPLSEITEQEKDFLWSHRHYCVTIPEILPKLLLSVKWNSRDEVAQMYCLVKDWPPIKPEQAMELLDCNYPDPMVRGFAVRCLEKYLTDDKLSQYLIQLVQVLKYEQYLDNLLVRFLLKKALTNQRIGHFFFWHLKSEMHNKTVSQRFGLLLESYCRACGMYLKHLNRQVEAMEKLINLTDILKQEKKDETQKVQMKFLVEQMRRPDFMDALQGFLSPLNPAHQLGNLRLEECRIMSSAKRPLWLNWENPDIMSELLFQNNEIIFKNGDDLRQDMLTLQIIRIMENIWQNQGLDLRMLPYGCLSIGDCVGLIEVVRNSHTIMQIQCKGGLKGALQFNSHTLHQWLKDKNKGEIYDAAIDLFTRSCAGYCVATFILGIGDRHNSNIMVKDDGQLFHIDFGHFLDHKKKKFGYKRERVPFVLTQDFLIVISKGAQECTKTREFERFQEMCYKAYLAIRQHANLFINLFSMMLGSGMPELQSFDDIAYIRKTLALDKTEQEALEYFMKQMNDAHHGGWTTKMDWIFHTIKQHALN

Turning to `COCCOc1ccc(-c2ccc3ncc4c(c3c2)n(-c2cn(C)nc2C)c(=O)n4C)cc1OC` [Example 30.1, 1-(1,3-Dimethyl-1H-pyrazol-4-yl)-8-[3-methoxy-4-(2-methoxy-ethoxy)-phenyl]-3-methyl-1,3-dihydro-imidazo[4,5-c]quinolin-2-one], the half-maximal inhibitory concentration (IC50) (as a rule, the midpoint of a concentration-inhibition curve) came to 22 nM at PI3K alpha and 178 nM on PI3K gamma. In the data set “Solubility at pH 6.8”, the solubility (commonly the dissolved amount per volume that the medium holds) was 4 µg/mL (≈ 8.45 µM).

`Cc1nn(C)c(C)c1-n1c(=O)n(C)c2cnc3ccc(-c4cccc(O)c4)cc3c21` [Example 32.2, 8-(3-Hydroxy-phenyl)-3-methyl-1-(1,3,5-trimethyl-1H-pyrazol-4-yl)-1,3-dihydro-imidazo[4,5-c]quinolin-2-one]: the values for the 50% inhibitory concentration (IC50) at PI3K alpha and on PI3K gamma were 30 nM and 160 nM, respectively. The solubility in the data set “Solubility at pH 6.8” turned out to be 194 µg/mL (≈ 486 µM).

Take `CNC(=O)c1ccc(-c2ccc3ncc4c(c3c2)n(-c2cn(C)nc2C)c(=O)n4C)cc1` [Example 43.1, 4-[1-(1,3-Dimethyl-1H-pyrazol-4-yl)-3-methyl-2-oxo-2,3-dihydro-1H-imidazo[4,5-c]quinolin-8-yl]-N-methyl-benzamide]: the IC50 at PI3K alpha stood at 10 nM; on PI3K gamma, 150 nM. Further, the solubility in “Solubility at pH 6.8” worked out at 19 µg/mL (≈ 44.6 µM).

Consider `Cc1nn(CC(=O)N(C)C)cc1-n1c(=O)n(C)c2cnc3ccc(-c4ccc(-n5cccn5)cc4)cc3c21` [Example 51.2, N,N-Dimethyl-2-{3-methyl-4-[3-methyl-2-oxo-8-(4-pyrazol-1-yl-phenyl)-2,3-dihydro-imidazo[4,5-c]quinolin-1-yl]-pyrazol-1-yl}-acetamide], for which the IC50 at PI3K alpha was 8 nM; on PI3K gamma, 138 nM. Further, in “Solubility at pH 6.8”, the solubility was 4 µg/mL (≈ 7.9 µM).

Regarding `CCOc1ncc(-c2ccc3ncc4c(c3c2)n(-c2cn(C)nc2C)c(=O)n4C)cn1` [Example 52, 1-(1,3-Dimethyl-1H-pyrazol-4-yl)-8-(2-ethoxy-pyrimidin-5-yl)-3-methyl-1,3-dihydro-imidazo[4,5-c]quinolin-2-one], the IC50 at PI3K alpha stood at 56 nM; at PI3K gamma, 597 nM. Moreover, in “Solubility at pH 6.8”, the solubility turned out to be 11 µg/mL (≈ 26.5 µM).

Turning to `COCc1cncc(-c2ccc3ncc4c(c3c2)n(-c2cn(C)nc2Cl)c(=O)n4C)c1` [Example 54.2, 1-(3-Chloro-1-methyl-1H-pyrazol-4-yl)-8-(5-methoxymethyl-pyridin-3-yl)-3-methyl-1,3-dihydro-imidazo[4,5-c]quinolin-2-one], the IC50 at PI3K alpha is 30 nM. Besides, the Papp A→B in data set [1] turned out to be 33.5 ×10⁻⁶ cm/s. In addition, the solubility in the data set “Solubility at pH 6.8” was above 435 µg/mL.

In the case of `CCn1cc(-n2c(=O)n(C)c3cnc4ccc(-c5cncc(OC(C)C)c5)cc4c32)c(C)n1` [Example 58.4, 1-(1-Ethyl-3-methyl-1H-pyrazol-4-yl)-8-(5-isopropoxy-pyridin-3-yl)-3-methyl-1,3-dihydro-imidazo[4,5-c]quinolin-2-one], the concentration for half-maximal inhibition (IC50) came to 14 nM on PI3K alpha and 253 nM at PI3K gamma. In addition, in the data set “Solubility at pH 6.8”, the solubility worked out at 27 µg/mL (≈ 61 µM).

Turning to `COCCOc1cncc(-c2ccc3ncc4c(c3c2)n(-c2cn(C)nc2C)c(=O)n4C)c1` [Example 59.1, 1-(1,3-Dimethyl-1H-pyrazol-4-yl)-8-[5-(2-methoxy-ethoxy)-pyridin-3-yl]-3-methyl-1,3-dihydro-imidazo[4,5-c]quinolin-2-one], the IC50 at PI3K alpha was 18 nM; at PI3K gamma it was 179 nM. The solubility in “Solubility at pH 6.8” was above 444 µg/mL.

`COCCn1c(=O)n(C)c2ncc(-c3ccc4ncc5c(c4c3)n(-c3cn(C)nc3C)c(=O)n5C)cc21` [Example 69, 1-(1,3-Dimethyl-1H-pyrazol-4-yl)-8-[1-(2-methoxy-ethyl)-3-methyl-2-oxo-2,3-dihydro-1H-imidazo[4,5-b]pyridin-6-yl]-3-methyl-1,3-dihydro-imidazo[4,5-c]quinolin-2-one]: the IC50 on PI3K alpha was 39 nM; at PI3K gamma, 646 nM. The solubility in “Solubility at pH 6.8” stood at 3 µg/mL (≈ 6.02 µM).

For the molecule `CCOc1cc(-c2ccc3ncc4c(c3c2)n(-c2cn(C)nc2C)c(=O)n4C)ccn1` [Example 91, 1-(1,3-Dimethyl-1H-pyrazol-4-yl)-8-(2-ethoxy-pyridin-4-yl)-3-methyl-1,3-dihydro-imidazo[4,5-c]quinolin-2-one], the IC50 on PI3K alpha amounted to 83 nM; at PI3K gamma it was 250 nM. Besides, the solubility in the data set “Solubility at pH 6.8” is 13 µg/mL (≈ 31.4 µM).

`COc1ccc(-c2ccc3ncc4c(c3c2)n(-c2cn(CCO)nc2C)c(=O)n4C)cn1` [Example 103.1, 1-[1-(2-Hydroxy-ethyl)-3-methyl-1H-pyrazol-4-yl]-8-(6-methoxy-pyridin-3-yl)-3-methyl-1,3-dihydro-imidazo[4,5-c]quinolin-2-one]: the half-inhibitory concentration (IC50) is 20 nM at PI3K alpha and 191 nM at PI3K gamma. Also, the solubility in the data set “Solubility at pH 6.8” came to 38 µg/mL (≈ 88.3 µM).

For the molecule `CCOc1ccc(-c2ccc3ncc4c(c3c2)n(-c2cn(CC(=O)N(C)CC)nc2C)c(=O)n4C)cn1` [Example 136, 2-{4-[8-(6-Ethoxy-pyridin-3-yl)-3-methyl-2-oxo-2,3-dihydro-imidazo[4,5-c]quinolin-1-yl]-3-methyl-pyrazol-1-yl}-N-ethyl-N-methyl-acetamide], the half-inhibitory concentration (IC50) at PI3K alpha came to 25 nM. In addition, the Papp A→B in data set [1] worked out at 17 ×10⁻⁶ cm/s. For the same molecule, in the data set “Solubility at pH 6.8”, the solubility was 141 µg/mL (≈ 282 µM).

As to `CNc1ncc(-c2ccc3ncc4c(c3c2)n(-c2cn(C)nc2C)c(=O)n4C)cc1Cl` [Example 146.1, 8-(5-Chloro-6-methylamino-pyridin-3-yl)-1-(1,3-dimethyl-1H-pyrazol-4-yl)-3-methyl-1,3-dihydro-imidazo[4,5-c]quinolin-2-one], at PI3K alpha, the 50% inhibitory concentration (IC50) worked out at 14 nM. Moreover, in data set [1], the Papp A→B stood at 29.1 ×10⁻⁶ cm/s. Further, the solubility in the data set “Solubility at pH 6.8” was above 434 µg/mL.

Turning to `CNc1cc(-c2ccc3ncc4c(c3c2)n(-c2cn(C)nc2C)c(=O)n4C)cnc1COC` [Example 159, 1-(1,3-Dimethyl-1H-pyrazol-4-yl)-8-(6-methoxymethyl-5-methylamino-pyridin-3-yl)-3-methyl-1,3-dihydro-imidazo[4,5-c]quinolin-2-one], the 50% inhibitory concentration (IC50) at PI3K alpha was 34 nM. In data set [1], the Papp A→B was determined as 13.9 ×10⁻⁶ cm/s. In “Solubility at pH 6.8”, the solubility is above 444 µg/mL.

As to `CCOc1cc(-c2ccc3ncc4c(c3c2)n(-c2cn(C)nc2C)c(=O)n4C)cnc1COC` [Example 197.1, 1-(1,3-Dimethyl-1H-pyrazol-4-yl)-8-(5-ethoxy-6-methoxymethyl-pyridin-3-yl)-3-methyl-1,3-dihydro-imidazo[4,5-c]quinolin-2-one], the IC50 at PI3K alpha was 34 nM. Besides, the Papp A→B in data set [1] was 15.8 ×10⁻⁶ cm/s. Moreover, the solubility in the data set “Solubility at pH 6.8” came to 361 µg/mL (≈ 787 µM).

For `CCn1c(=O)n(-c2cn(C)nc2C)c2c3nc(-c4ccc(OC)c(OC)c4)ccc3ncc21` [Example 251, 8-(3,4-Dimethoxy-phenyl)-1-(1,3-dimethyl-1H-pyrazol-4-yl)-3-ethyl-1,3-dihydro-1,3,5,9-tetraaza-cyclopenta[a]naphthalen-2-one], the IC50 amounted to 28 nM on PI3K alpha and 212 nM at PI3K gamma. In addition, in “Solubility at pH 6.8”, the solubility was found to be 12 µg/mL (≈ 27 µM).

Regarding `COc1ccc(-c2ccc3ncc4c(c3n2)n(-c2cc(C)nn2C)c(=O)n4C)cc1OC` [Example 253, 8-(3,4-Dimethoxy-phenyl)-1-(2,5-dimethyl-2H-pyrazol-3-yl)-3-methyl-1,3-dihydro-1,3,5,9-tetraaza-cyclopenta[a]naphthalen-2-one], the IC50 on PI3K alpha stood at 4 nM; at PI3K gamma, 88 nM. Besides, the solubility in “Solubility at pH 6.8” amounted to 7 µg/mL (≈ 16.3 µM).
